In the experiment the target is LRRK2 (leucine-rich repeat kinase 2) (Homo sapiens, UniProt Q5S007). Nature of the experiment: in vitro radiometric kinase assay with recombinant purified LRRK2. The experiment is classed as biochemical.

The record followed here is paper PMC3532034 (The Journal of neuroscience : the official journal of the …, 2012).

One may read the IC50 as the concentration that inhibits the measured activity by half.

LRRK2 (leucine-rich repeat kinase 2), sequence (Q5S007 970-2527 limits assumed): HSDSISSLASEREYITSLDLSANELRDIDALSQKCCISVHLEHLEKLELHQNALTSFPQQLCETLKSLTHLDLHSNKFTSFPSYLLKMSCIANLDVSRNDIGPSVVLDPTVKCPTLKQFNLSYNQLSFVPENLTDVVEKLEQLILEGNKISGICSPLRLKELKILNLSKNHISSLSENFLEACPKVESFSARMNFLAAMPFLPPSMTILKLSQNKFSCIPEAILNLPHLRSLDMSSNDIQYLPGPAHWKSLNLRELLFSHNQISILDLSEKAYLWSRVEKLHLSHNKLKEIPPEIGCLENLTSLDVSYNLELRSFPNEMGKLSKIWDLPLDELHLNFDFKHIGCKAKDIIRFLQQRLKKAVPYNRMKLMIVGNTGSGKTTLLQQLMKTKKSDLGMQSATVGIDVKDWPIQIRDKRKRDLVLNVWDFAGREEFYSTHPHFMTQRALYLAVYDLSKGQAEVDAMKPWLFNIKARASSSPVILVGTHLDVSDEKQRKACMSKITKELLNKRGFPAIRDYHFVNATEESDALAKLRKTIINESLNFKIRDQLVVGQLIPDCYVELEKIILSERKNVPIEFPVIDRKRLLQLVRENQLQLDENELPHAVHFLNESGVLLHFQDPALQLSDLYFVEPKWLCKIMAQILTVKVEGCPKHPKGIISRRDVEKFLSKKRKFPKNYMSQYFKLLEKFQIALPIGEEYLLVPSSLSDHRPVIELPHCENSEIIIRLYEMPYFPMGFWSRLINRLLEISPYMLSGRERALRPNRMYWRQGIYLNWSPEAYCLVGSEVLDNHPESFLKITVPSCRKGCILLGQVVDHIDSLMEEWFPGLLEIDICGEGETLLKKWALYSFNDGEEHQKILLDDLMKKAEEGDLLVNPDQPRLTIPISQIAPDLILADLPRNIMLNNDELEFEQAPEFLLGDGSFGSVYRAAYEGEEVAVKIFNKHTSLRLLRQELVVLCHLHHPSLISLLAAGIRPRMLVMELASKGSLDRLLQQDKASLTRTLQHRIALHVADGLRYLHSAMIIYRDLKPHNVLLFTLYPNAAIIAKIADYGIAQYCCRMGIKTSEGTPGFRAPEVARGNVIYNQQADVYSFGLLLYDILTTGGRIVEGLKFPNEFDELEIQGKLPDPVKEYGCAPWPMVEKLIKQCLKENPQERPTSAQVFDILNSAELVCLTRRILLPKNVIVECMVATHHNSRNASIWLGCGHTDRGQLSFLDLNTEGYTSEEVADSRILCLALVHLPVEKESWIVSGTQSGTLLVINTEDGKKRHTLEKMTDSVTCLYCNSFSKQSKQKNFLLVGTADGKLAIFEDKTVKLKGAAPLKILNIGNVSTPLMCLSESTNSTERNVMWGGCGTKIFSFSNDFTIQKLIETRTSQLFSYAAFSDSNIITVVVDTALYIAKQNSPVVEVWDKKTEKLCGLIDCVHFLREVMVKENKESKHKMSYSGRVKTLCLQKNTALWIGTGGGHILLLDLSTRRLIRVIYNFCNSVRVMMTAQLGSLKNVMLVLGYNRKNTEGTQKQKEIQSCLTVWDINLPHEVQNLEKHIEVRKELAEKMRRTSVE

For `COc1cc(C(=O)N2CCC(N3CCN(C)CC3)CC2)ccc1Nc1ncc2c(n1)N(C)c1ccccc1C(=O)N2C` [L2in1], the concentration for half-maximal inhibition (IC50) was 40.3 nM.
